Laboratory results taken from article PMC5986654, “Combined HAT/EZH2 modulation leads to cancer-selective cell death” (Oncotarget, 2018).

Experiments:
p300 = p300 (Homo sapiens, UniProt Q09472); experiment: HAT in vitro assay, 10-dose IC50, p300; type: biochemical; details: substrate Histone H3, 3 μM Acetyl-CoA; read-out: Compound IC50 p300
HDAC1 = HDAC1 (Homo sapiens, UniProt Q13547); experiment: HDAC1 in vitro assay; type: biochemical
Procedure: (§1) The HDAC1 and SIRT1 assays were performed as described previously.

SIRT1 = SIRT1 (Homo sapiens, UniProt Q96EB6); experiment: SIRT1 in vitro assay; type: biochemical
SIRT1, sequence (Q96EB6 whole entry): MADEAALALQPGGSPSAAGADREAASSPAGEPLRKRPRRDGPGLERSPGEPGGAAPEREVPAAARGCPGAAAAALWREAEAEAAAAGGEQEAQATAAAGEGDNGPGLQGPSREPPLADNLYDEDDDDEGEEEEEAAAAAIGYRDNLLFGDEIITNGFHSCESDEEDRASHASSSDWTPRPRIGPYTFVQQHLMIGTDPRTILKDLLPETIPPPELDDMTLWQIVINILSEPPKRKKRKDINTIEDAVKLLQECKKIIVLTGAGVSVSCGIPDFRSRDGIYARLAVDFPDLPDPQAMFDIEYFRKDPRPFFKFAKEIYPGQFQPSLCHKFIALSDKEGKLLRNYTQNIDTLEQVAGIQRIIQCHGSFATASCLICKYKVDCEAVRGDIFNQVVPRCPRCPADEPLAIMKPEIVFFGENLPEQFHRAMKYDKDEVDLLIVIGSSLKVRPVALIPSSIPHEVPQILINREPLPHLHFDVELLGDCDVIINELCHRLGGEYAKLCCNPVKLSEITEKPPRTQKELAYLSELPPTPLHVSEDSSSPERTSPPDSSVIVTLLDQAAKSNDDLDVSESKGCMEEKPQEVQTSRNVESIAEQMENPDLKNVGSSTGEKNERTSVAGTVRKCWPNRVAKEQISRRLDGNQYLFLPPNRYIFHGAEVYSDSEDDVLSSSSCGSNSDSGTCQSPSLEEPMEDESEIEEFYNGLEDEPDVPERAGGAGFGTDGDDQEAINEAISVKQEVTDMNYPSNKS
Procedure: as §1

[1] = system: endometrial stromal cells; experiment: Cytotoxic effect on immortalized non-cancer endometrial stromal cells; type: cell-based
[2] = Body weight of leukemia-xenografted mice; type: in vivo; details: 1 mg/kg i.p. three times weekly, 16 days post-xenograft; control mice 94%
Procedure: Xenograft studies using NB4 and U937-AML cells were performed in NOG SCID mice under specific pathogen–free conditions. Cells (0.2 × 10^6 in 100 µL) were injected intravenously (retro orbital vein). Injected mice were randomly assigned to receive intra-peritoneal MC2884 (1 mg/kg) or vehicle for two weeks (8 doses) (10 mice per group). All animal procedures were performed in accordance with protocols approved by the local Committee for Animal Experimentation and with the permission of the Italian Health Ministry (n° 626/2015). At 16 days after injection, mice were sacrificed and the femurs and spleens were collected. Bone marrow (BM) and spleen cells were analyzed by FACS. To avoid non-specific stain, cells were mixed with mouse IgG and incubated with indicated antibodies for 30’. The mixture was depleted of erythrocytes and fixed (BD Pharmingen). […] Tumor growth was monitored by weekly bioluminescence imaging (BLI) acquisitions using an IVIS 3D Imaging System (Caliper Alameda, USA). To quantify bioluminescence, the integrated fluxes of photons (photons per s) within each area of interest were determined using the Living Images Software Package 3.2 (Caliper, Alameda, USA). […] Efficacy of drug treatment was assessed as inhibition of BLI emission comparing those MC2884 treated mice group and vehicle groups.

CYP2D6 = biological target: T1, CYP2D6 (Homo sapiens, UniProt P10635); experiment: Cytochrome P450 inhibition, CYP2D6; type: in vitro ADME; details: human liver microsomes, probe dextromethorphan
T1 construct: liver microsomes (0.5 mg/mL) and NADPH (1 mM) in; from tissue; host or cells: human liver microsomes
T1 sequence (P10635 whole entry): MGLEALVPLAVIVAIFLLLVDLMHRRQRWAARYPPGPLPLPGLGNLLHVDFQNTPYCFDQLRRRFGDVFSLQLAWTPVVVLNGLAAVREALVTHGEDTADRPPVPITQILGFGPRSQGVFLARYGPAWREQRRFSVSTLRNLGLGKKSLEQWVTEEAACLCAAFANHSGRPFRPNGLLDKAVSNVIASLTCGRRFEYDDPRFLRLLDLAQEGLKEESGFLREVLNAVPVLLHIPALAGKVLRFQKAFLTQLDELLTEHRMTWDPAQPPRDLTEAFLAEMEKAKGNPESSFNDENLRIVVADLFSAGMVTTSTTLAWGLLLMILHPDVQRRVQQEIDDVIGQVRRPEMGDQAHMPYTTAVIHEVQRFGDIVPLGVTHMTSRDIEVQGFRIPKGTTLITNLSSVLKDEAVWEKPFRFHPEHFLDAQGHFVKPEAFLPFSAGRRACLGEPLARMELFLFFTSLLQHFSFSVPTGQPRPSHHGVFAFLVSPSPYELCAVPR
Procedure: This provided a dose of 2 mg free base material/kg when Cytochrome p450 inhibition (5 isoform iC50 administered iv in a 5 mL/kg dosing volume. determination) mouse terminal ip pK study ADME-Tox Cytochrome P450 inhibition of Compound MC2884 was given ip at a dose of 2 mg/kg MC2884 using human liver microsomes as an estimation to a group of 24 normally fed male CD1 mice in a 10 mL/ of in vitro metabolism. kg injection volume. Terminal blood samples (> 230 μL) MC2884 (0.1 μM–25 μM) was incubated with were taken under CO2 from groups of 3 mice at each of 8 human liver microsomes and NADPH in the presence time-points post dose (0.083, 0.25, 0.5, 1, 2, 4, 8 and 24 h) of a cytochrome P450 isoform-specific probe substrate. and placed into heparinized tubes. […]
All samples were stored at −20° C measuring the formation of a fluorescent metabolite. […]
Cyp2C19 inhibition (0.1 mg/mL) and NADPH (1 mM) in the presence of the probe substrate midazolam (2.5 μM) for 5 min at Six test compound samples at concentrations 37° C. […] For the CYP1A incubations, the reactions microsomes (0.5 mg/mL) and NADPH (1 mM) in the were terminated by methanol, and the formation of the presence of the probe substrate mephenytoin (25 μM) metabolite, resorufin, was monitored by fluorescence for 60 min at 37° C. […]

HDAC1, sequence (Q13547 whole entry): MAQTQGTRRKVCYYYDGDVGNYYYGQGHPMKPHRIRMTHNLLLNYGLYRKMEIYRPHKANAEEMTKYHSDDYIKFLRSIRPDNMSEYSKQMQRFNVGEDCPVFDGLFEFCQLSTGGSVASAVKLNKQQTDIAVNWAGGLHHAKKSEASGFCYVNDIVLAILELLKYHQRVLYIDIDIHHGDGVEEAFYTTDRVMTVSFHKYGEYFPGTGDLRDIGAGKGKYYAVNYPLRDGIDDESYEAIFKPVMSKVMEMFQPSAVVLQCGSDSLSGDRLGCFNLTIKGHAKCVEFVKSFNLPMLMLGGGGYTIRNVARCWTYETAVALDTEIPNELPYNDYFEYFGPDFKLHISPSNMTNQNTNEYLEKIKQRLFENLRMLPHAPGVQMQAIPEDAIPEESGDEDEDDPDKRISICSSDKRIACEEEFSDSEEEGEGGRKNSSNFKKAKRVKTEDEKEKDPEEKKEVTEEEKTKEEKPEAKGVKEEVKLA
p300, sequence (Q09472 whole entry): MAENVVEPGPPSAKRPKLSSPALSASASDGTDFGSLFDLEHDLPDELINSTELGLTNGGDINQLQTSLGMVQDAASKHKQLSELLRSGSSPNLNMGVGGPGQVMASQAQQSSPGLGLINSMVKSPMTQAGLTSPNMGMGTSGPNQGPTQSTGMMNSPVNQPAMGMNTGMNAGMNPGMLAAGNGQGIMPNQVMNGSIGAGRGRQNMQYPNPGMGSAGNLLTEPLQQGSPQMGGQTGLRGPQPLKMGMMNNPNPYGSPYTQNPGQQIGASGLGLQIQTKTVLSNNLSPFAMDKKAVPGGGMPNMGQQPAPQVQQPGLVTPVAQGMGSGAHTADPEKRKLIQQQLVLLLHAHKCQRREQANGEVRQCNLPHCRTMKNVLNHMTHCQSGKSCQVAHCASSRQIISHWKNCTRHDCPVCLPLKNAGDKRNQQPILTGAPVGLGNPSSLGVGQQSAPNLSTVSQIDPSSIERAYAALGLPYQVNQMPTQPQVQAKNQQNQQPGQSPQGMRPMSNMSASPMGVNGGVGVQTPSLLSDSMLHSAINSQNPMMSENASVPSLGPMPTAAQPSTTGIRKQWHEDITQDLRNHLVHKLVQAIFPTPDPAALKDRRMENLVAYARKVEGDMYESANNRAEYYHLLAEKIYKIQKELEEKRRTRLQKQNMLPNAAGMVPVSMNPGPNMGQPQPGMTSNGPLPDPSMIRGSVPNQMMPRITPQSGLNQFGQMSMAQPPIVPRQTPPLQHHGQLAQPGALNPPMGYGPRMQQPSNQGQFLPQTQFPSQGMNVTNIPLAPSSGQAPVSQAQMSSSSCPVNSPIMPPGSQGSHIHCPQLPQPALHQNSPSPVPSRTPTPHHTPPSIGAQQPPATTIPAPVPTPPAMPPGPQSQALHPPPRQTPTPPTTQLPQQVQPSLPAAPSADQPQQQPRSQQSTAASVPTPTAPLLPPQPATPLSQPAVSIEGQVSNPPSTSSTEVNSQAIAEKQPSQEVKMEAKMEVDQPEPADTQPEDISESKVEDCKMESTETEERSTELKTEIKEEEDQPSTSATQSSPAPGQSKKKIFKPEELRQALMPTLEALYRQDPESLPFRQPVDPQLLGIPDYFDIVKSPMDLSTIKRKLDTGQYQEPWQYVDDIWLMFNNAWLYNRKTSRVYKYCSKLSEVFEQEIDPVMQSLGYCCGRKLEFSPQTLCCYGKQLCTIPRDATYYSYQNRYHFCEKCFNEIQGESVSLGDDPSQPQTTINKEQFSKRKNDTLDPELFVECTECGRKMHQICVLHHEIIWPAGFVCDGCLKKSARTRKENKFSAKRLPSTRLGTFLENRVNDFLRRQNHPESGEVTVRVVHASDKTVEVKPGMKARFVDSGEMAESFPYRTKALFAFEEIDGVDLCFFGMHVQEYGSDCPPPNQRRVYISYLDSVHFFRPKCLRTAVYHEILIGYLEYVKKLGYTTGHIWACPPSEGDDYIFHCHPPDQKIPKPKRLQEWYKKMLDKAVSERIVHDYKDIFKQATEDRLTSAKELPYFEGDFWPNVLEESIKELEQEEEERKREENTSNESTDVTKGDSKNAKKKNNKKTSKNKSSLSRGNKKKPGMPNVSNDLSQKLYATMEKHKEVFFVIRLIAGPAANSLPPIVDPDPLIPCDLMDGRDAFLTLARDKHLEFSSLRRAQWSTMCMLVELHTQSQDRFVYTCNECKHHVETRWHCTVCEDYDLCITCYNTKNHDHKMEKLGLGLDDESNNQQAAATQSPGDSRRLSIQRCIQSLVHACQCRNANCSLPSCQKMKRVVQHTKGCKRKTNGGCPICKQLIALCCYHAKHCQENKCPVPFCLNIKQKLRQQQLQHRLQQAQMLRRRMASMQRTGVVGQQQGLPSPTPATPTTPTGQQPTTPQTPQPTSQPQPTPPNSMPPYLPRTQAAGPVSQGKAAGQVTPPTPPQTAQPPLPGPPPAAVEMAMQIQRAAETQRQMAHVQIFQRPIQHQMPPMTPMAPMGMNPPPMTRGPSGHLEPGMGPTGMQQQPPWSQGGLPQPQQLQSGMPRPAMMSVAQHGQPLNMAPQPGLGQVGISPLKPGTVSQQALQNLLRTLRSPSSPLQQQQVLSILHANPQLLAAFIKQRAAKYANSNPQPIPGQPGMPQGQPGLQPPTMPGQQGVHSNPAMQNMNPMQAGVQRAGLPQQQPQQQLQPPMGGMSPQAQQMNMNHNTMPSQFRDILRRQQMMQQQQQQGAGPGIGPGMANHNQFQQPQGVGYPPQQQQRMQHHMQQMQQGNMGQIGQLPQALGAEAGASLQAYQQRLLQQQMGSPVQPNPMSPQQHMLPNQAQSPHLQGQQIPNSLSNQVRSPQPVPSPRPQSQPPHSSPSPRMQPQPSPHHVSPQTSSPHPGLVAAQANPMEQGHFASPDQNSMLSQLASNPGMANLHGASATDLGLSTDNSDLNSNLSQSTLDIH

Question: With `O=C1/C(=C/c2cccc(Br)c2)CN(Cc2ccccc2)C/C1=C\c1cccc(Br)c1` [MC2884] as the molecule, how does the IC50 (p300) read?
Answer: 456 nM

Question: What about the HDAC modulating action (HDAC1) of the same molecule?
Answer: no activity

Question: What about the SirT modulating action (SIRT1) of the same molecule?
Answer: no activity

Question: What about the “cytotoxic effect on endometrial stromal cells” value [1] of the same molecule?
Answer: insensitive

Question: And the “normalized weight, % of initial weight” value [2]?
Answer: 90%

Question: And the IC50 (CYP2D6)?
Answer: > 25000 nM
